Here are results for eight compounds from DBAASP.

≈ marks a conversion by molar mass, not a printed value.

The MIC is the smallest concentration in the dilution series that meets the test's criterion for growth inhibition. A lower MIC goes with greater potency.

Among the test systems are Escherichia coli BL21; Escherichia coli MG1655; Escherichia coli ML-35p; Escherichia coli UB1005.
Assay in all cases: ≥ marks a high value that may be exact or a test limit, other limits are often not marked, values filed in µg/mL are converted to µM
The subject of assay [1] is Staphylococcus epidermidis.
For assay [2], the system named is Staphylococcus aureus ATCC BAA-44.
Assay [3] has as its system Escherichia coli ATCC 25922.
Assay [4] deals with Staphylococcus aureus ATCC 25923.
Assay [5] relates to Enterococcus faecalis ATCC 29212.
Assay [6] has as its system Pseudomonas aeruginosa ATCC 27853.
Assay [7] deals with Pseudomonas fluorescens NCIMB 9046.
The test system of assay [8] is Staphylococcus aureus RF122.
In assay [9] the test system is Cronobacter sakazakii DPC 6440.
For assay [10], the system named is Escherichia coli NCIMB 11843.
For assay [11], the system named is Cronobacter sakazakii DSM 4485.
The subject of assay [12] is Cronobacter sakazakii ATCC BAA-894.
The subject of assay [13] is Staphylococcus aureus SA113.
Assay [14] has as its system Cronobacter muytjensii ATCC 51329.
The subject of assay [15] is Klebsiella pneumoniae NCIMB 13218.
Assay [16] relates to Staphylococcus aureus RN4220.
For assay [17], the system named is Staphylococcus aureus NCTC 8325-4.
Assay [18] relates to Salmonella enterica subsp. enterica serovar Typhimurium LT2.
In assay [19] the test system is Staphylococcus aureus Newman.
For assay [20], the system named is Salmonella enterica subsp. enterica serovar Typhimurium ATCC 14028.
In assay [21] the test system is Staphylococcus aureus ATCC 29213.
For assay [22], the system named is Salmonella enterica subsp. enterica serovar Pullorum C79-13.
The subject of assay [23] is Staphylococcus epidermidis ATCC 12228.
In assay [24] the test system is Salmonella enterica subsp. enterica serovar Typhimurium C77-31.
For assay [25], the system named is Salmonella enterica subsp. enterica serovar Typhi CMCC 50071.
Assay [26] relates to Escherichia coli DH5alpha.
For assay [27], the system named is Corynebacterium glutamicum ATCC 13032.

Consider `CC[C@H](C)[C@H](NC(=O)[C@H](CCCCN)NC(=O)[C@H](CCCN=C(N)N)NC(=O)[C@H](CCCCN)NC(=O)[C@H](CCCCN)NC(=O)[C@H](CCCCN)NC(=O)[C@H](Cc1c[nH]c2ccccc12)NC(=O)[C@H](CCCCN)NC(=O)[C@H](CC(C)C)NC(=O)[C@H](CO)NC(=O)[C@H](Cc1ccccc1)NC(=O)[C@H](CCCN=C(N)N)NC(=O)[C@H](CC(=O)O)NC(=O)[C@H](CCSC)NC(C)=O)C(=O)N[C@@H](CCCN=C(N)N)C(=O)N[C@@H](CCCN=C(N)N)C(=O)N[C@@H](CCCN=C(N)N)C(=O)N[C@@H](CCCN=C(N)N)C(=O)N[C@@H](CCCN=C(N)N)C(=O)N[C@@H](CCCN=C(N)N)C(=O)N[C@@H](CCCN=C(N)N)C(=O)N[C@@H](CCCN=C(N)N)C(=O)N[C@@H](CCCN=C(N)N)C(=O)N[C@@H](CCCN=C(N)N)C(=O)N[C@@H](CCCN=C(N)N)C(N)=O` [MDRFSLKWKKKRKIRRRRRRRRRRR], for which the MIC in assay [1] stood at 3 µM (≈ 10.9 µg/mL); in the assay on Escherichia coli BL21, 4 µM (≈ 14.5 µg/mL); in the assay with Escherichia coli MG1655, 7.5 µM (≈ 27.2 µg/mL).

As to `CC[C@H](C)[C@H](NC(=O)CN)C(=O)N[C@@H](CCCCN)C(=O)N[C@@H](CC(=O)O)C(=O)N[C@@H](CC(C)C)C(=O)N[C@@H](CC(C)C)C(=O)N[C@@H](CCCCN)C(=O)NCC(=O)N[C@@H](C)C(=O)N[C@@H](C)C(=O)N[C@@H](CCCCN)C(=O)N[C@@H](C)C(=O)N[C@@H](CC(C)C)C(=O)N[C@H](C(=O)N[C@@H](CCCCN)C(=O)N[C@H](C(=O)N[C@H](C(=O)N[C@@H](CC(C)C)C(=O)N[C@@H](CCCCN)C(N)=O)C(C)C)[C@@H](C)O)C(C)C` [GIKDLLKGAAKALVKTVLK], the MIC was determined as 12.5 µM (≈ 24.6 µg/mL) in the assay on Escherichia coli ML-35p; 6.3 µM (≈ 12.4 µg/mL) in assay [2]; 1.7 µM (≈ 3.34 µg/mL) in [3]; 4.7 µM (≈ 9.24 µg/mL) in assay [4]; 50 µM (≈ 98.3 µg/mL) in assay [5]; 25 µM (≈ 49.1 µg/mL) in assay [6].

For the compound `CC(C)C[C@H](NC(=O)[C@H](CC(C)C)NC(=O)[C@H](CC(N)=O)NC(=O)[C@H](CCC(=O)O)NC(=O)[C@H](CC(N)=O)NC(=O)[C@H](CC(C)C)NC(=O)[C@@H](N)C(C)C)C(=O)N[C@@H](CCCCN)C(=O)O` [VLNENLLK], the MIC in [7] was at least 625 µM; in assay [8] it was at least 1250 µM; in assay [9] it was at least 1250 µM; in assay [10], at least 2500 µM; in assay [11], at least 1250 µM; in assay [12] it was at least 2500 µM. For the same compound, the MIC is at least 1250 µM in assay [13]; at least 1250 µM in [14]; at least 2500 µM in assay [15]; at least 1250 µM in assay [16]; at least 1250 µM in assay [17]; at least 2500 µM in assay [18]. In [19], the MIC was at least 1250 µM.

In the case of `CC(C)C[C@H](NC(=O)[C@H](CC(N)=O)NC(=O)[C@H](CCC(=O)O)NC(=O)[C@H](CC(N)=O)NC(=O)[C@H](CC(C)C)NC(=O)[C@@H](N)C(C)C)C(=O)N[C@@H](C)C(=O)N[C@@H](CCCN=C(N)N)C(=O)O` [VLNENLAR], the MIC in assay [7] was at least 1250 µM; in [8] it was at least 1250 µM; in assay [9], at least 625 µM; in assay [10], at least 1250 µM; in assay [11] it was at least 2500 µM; in [12], at least 2500 µM. Further, the MIC was at least 625 µM in [13]; at least 2500 µM in assay [14]; at least 1250 µM in assay [15]; at least 1250 µM in assay [16]; at least 625 µM in assay [17]; at least 2500 µM in assay [18]. In addition, the MIC in assay [19] is at least 1250 µM.

In the case of `CC[C@H](C)[C@H](NC(=O)[C@H](CCCCN)NC(=O)CNC(=O)[C@H](CC(C)C)NC(=O)[C@H](Cc1ccccc1)NC(=O)[C@H](CCC(N)=O)NC(=O)[C@H](Cc1ccccc1)NC(=O)[C@@H](N)C(C)C)C(=O)N[C@H](C(=O)N[C@@H](Cc1cnc[nH]1)C(=O)N[C@@H](Cc1cnc[nH]1)C(=O)N[C@H](C(=O)NCC(=O)N[C@@H](CC(N)=O)C(=O)N[C@@H](Cc1ccccc1)C(=O)N[C@H](C(=O)N[C@@H](Cc1cnc[nH]1)C(=O)NCC(=O)N[C@@H](Cc1ccccc1)C(=O)N[C@@H](CO)C(=O)N[C@@H](C)C(=O)N[C@H](C(=O)N[C@@H](Cc1ccccc1)C(N)=O)C(C)C)C(C)C)C(C)C)[C@@H](C)CC` [VFQFLGKIIHHVGNFVHGFSAVF], the MIC in the assay with Escherichia coli MG1655 is at least 64 µM.

On to `NC(=O)CC[C@H](NC(=O)[C@H](Cc1c[nH]c2ccccc12)NC(=O)[C@H](CCCN=C(N)N)NC(=O)[C@H](CCCN=C(N)N)NC(=O)[C@@H]1CCCN1C(=O)[C@@H](N)Cc1ccccc1)C(=O)N[C@@H](Cc1c[nH]c2ccccc12)C(=O)N[C@@H](CCCN=C(N)N)C(=O)N[C@@H](CCCN=C(N)N)C(=O)N1CCC[C@H]1C(=O)N[C@@H](Cc1ccccc1)C(N)=O` [FPRRWQWRRPF], for which the MIC in assay [20] is 32 µM (≈ 52.2 µg/mL); in assay [21], 32 µM (≈ 52.2 µg/mL); in [22] it was 16 µM (≈ 26.1 µg/mL); in assay [23], 64 µM (≈ 104 µg/mL); with Escherichia coli UB1005, 8 µM (≈ 13 µg/mL); in assay [4], 32 µM (≈ 52.2 µg/mL). The results for the MIC in assay [24] and in assay [25] were at least 64 µM and at least 128 µM, respectively.

Turning to `CC(C)C[C@H](NC(=O)[C@H](C)NC(=O)[C@@H](N)C(C)C)C(=O)N[C@@H](CC(N)=O)C(=O)N[C@@H](CCC(=O)O)C(=O)N[C@@H](CC(N)=O)C(=O)N[C@@H](CC(C)C)C(=O)N[C@@H](CC(C)C)C(=O)N[C@@H](CCCN=C(N)N)C(=O)O` [VALNENLLR], the MIC in [7] is at least 2500 µM; in assay [8], at least 1250 µM; in [9], at least 625 µM; in assay [10], at least 2500 µM; in assay [11], at least 2500 µM; in assay [12], at least 1250 µM. Also, the MIC in [13] was at least 1250 µM; in [14], at least 625 µM; in [15], at least 2500 µM; in assay [16] it was at least 1250 µM; in [17] it was at least 625 µM; in [18] it was at least 2500 µM. Besides, the results for the MIC in assay [6] and in assay [19] were 32 µM (≈ 33.3 µg/mL) and at least 1250 µM, respectively.

On to `CC[C@H](C)[C@H](NC(=O)[C@H](Cc1c[nH]c2ccccc12)NC(=O)[C@@H](N)CCCCN)C(=O)N[C@H]1CSSC[C@@H](C(=O)N[C@@H](CCCN=C(N)N)C(=O)N[C@@H](Cc2c[nH]c3ccccc23)C(=O)N[C@@H](CCCN=C(N)N)C(=O)O)NC(=O)[C@H](Cc2ccc(O)cc2)NC(=O)[C@H]([C@@H](C)O)NC(=O)[C@H]([C@@H](C)CC)NC(=O)[C@H](Cc2c[nH]c3ccccc23)NC(=O)[C@H](CCCN=C(N)N)NC(=O)CNC(=O)[C@H](CCCN=C(N)N)NC(=O)[C@H](Cc2ccc(O)cc2)NC(=O)[C@H](Cc2c[nH]c3ccccc23)NC(=O)[C@H](CC(C)C)NC(=O)[C@H](CCCN=C(N)N)NC(=O)[C@H](CCCN=C(N)N)NC1=O` [KWICRRLWYRGRWITYCRWR], for which the MIC in assay [26] worked out at 12.5 µM (≈ 35.7 µg/mL); in assay [27], 0.78 µM (≈ 2.23 µg/mL).
